Measurements reported in ChEMBL document CHEMBL1124752, “Cyclobut-A and cyclobut-G: broad-spectrum antiviral agents with potential utility for the therapy of AIDS” (J Med Chem, 1990).
≈ marks a conversion by molar mass, not a printed value.

How the values were obtained:
[1] = tested on: Human immunodeficiency virus 1; assay: Tested for the determination of percentage protection at 10 uM concentrations against HIV-1 in ATH8 Cells; format: functional
[2] = tested on: Human immunodeficiency virus 1; assay: Tested for the determination of percentage toxicity at 10 uM concentrations against HIV-1 in ATH8 Cells; format: functional
[3] = tested on: Human immunodeficiency virus 1; assay: Tested for the determination of percentage protection at 2 uM concentrations against HIV-1 in ATH8 Cells; format: functional
[4] = tested on: Human immunodeficiency virus 1; assay: Tested for the determination of percentage toxicity at 100 uM concentrations against HIV-1 in ATH8 Cells; format: functional
[5] = tested on: Human immunodeficiency virus 1; assay: Tested for the determination of percentage protection at 200 uM concentrations against HIV-1 in ATH8 Cells; format: functional
[6] = tested on: Human immunodeficiency virus 1; assay: Tested for the determination of percentage protection at 100 uM concentrations against HIV-1 in ATH8 Cells; format: functional
[7] = tested on: Human immunodeficiency virus 1; assay: Tested for the determination of percentage toxicity at 200 uM concentrations against HIV-1 in ATH8 Cells; format: functional
[8] = tested on: Human immunodeficiency virus 1; assay: Tested for the determination of percentage toxicity at 10 uM against HIV-1 in ATH8 cells; format: organism-based; settings: human immunodeficiency virus 1, ath-8, 10 µM
Human betaherpesvirus 5 [9] = assay: In vitro antiviral activity tested against herpesvirus, HCMV, EC strain by plaque reduction assay in human foreskin fibroblasts; format: functional
[10] = tested on: Human immunodeficiency virus 1; assay: Tested for the determination of percentage protection at 10 uM against HIV-1 in ATH8 cells; format: functional, ATH-8
Human alphaherpesvirus 2 [11] = assay: Number of survivors per number of HSV-2 infected mice treated with 7.8 mg/Kg/day; 5/10; format: functional, herpes simplex virus
Murid betaherpesvirus 1 [12] = assay: In vitro antiviral activity tested against herpesvirus, MCMV, Smith strain by plaque reduction assay in mouse embryo fibroblasts; format: functional
Homo sapiens = organism: Homo sapiens; assay: The drug concentration was determined to reduce proliferation of human foreskin fibroblasts to 50% of untreated controls in proliferation assay; format: functional; settings: read-out: ID50 (the source's name)
Human alphaherpesvirus 2 [13] = assay: Number of survivors per number of HSV-2 infected mice treated with 31.2 mg/Kg/day; 4/10; format: functional, herpes simplex virus
Murid betaherpesvirus 1 [14] = assay: Tested for mean day to death of nonsurvivors against systemic MCMV infection in mice at 3.8 mg/kg/day; format: functional
Human alphaherpesvirus 2 [15] = assay: In vitro antiviral activity tested against herpesvirus, HSV-2, MS strain by plaque reduction assay in human foreskin fibroblasts; format: functional
Human alphaherpesvirus 2 [16] = assay: Number of survivors per number of HSV-2 infected mice treated with 125 mg/kg/day; 8/10; format: functional, herpes simplex virus
Human alphaherpesvirus 2 [17] = assay: Tested for the effective dose required to inhibit HSV-2 encephalitis in infected mice; format: functional, herpes simplex virus
Murid betaherpesvirus 1 [18] = assay: Number of survivors per number of systemic MCMV infected mice treated with 3.8 mg/kg/day; 7/15; format: functional
[19] = tested on: Human immunodeficiency virus 1; assay: Tested for the determination of percentage protection at 100 uM against HIV-1 in ATH8 cells; format: functional, ATH-8
Human alphaherpesvirus 1 [20] = assay: Number of survivors per number of HSV-1 infected mice treated with 1.2 mg/kg/day; 4/10; format: functional, herpes simplex virus
Human alphaherpesvirus 3 [21] = assay: In vitro antiviral activity tested against herpesvirus, VZV, OKA strain by plaque reduction assay in human foreskin fibroblasts; format: functional
Murid betaherpesvirus 1 [22] = assay: Number of survivors per number of systemic MCMV infected mice treated with 100 mg/kg/day; 13/15; format: functional
Murid betaherpesvirus 1 [23] = assay: Number of survivors per number of systemic MCMV infected mice treated with 33.4 mg/kg/day; 13/15; format: functional
Human alphaherpesvirus 2 [24] = assay: In vitro antiviral activity tested against herpesvirus, HSV-2, HEET strain by plaque reduction assay in human foreskin fibroblasts; format: functional
Human betaherpesvirus 5 [25] = assay: In vitro antiviral activity tested against herpesvirus, HCMV, Davis strain by plaque reduction assay in human foreskin fibroblasts; format: functional
Murid betaherpesvirus 1 [26] = assay: Number of survivors per number of systemic MCMV infected mice treated with 11.2 mg/kg/day; 9/15; format: functional
[27] = tested on: Human immunodeficiency virus 1; assay: Tested for the determination of percentage toxicity at 100 uM against HIV-1 in ATH8 cells; format: organism-based; settings: human immunodeficiency virus 1, ath-8, 100 µM
Human betaherpesvirus 5 [28] = assay: In vitro antiviral activity tested against herpesvirus, HCMV, LA strain by plaque reduction assay in human foreskin fibroblasts; format: functional
[29] = tested on: Human immunodeficiency virus 1; assay: Tested for the determination of percentage toxicity at 50 uM against HIV-1 in ATH8 cells; format: organism-based; settings: human immunodeficiency virus 1, ath-8, 50 µM
Murid betaherpesvirus 1 [30] = assay: Tested for mean day to death of nonsurvivors against systemic MCMV infection in mice at 11.2 mg/kg/day; format: functional
Human alphaherpesvirus 1 [31] = assay: Tested for mean day to death of nonsurvivors against HSV-1 infection in mice at 1.2 mg/kg/day; format: functional, herpes simplex virus
Murid betaherpesvirus 1 [32] = assay: Tested for mean day to death of nonsurvivors against systemic MCMV infection in mice at 100 mg/kg/day; format: functional
Human alphaherpesvirus 2 [33] = assay: Tested for mean day to death of nonsurvivors against HSV-2 encephalitis in mice at 125 mg/kg/day; format: functional, herpes simplex virus
Murid betaherpesvirus 1 [34] = assay: Tested for mean day to death of nonsurvivors against systemic MCMV infection in mice at 33.4 mg/kg/day; format: functional
Human betaherpesvirus 5 [35] = assay: In vitro antiviral activity tested against herpesvirus, HCMV, AD169 strain by plaque reduction assay in human foreskin fibroblasts; format: functional
Human alphaherpesvirus 2 [36] = assay: Tested for mean day to death of nonsurvivors against HSV-2 encephalitis in mice at 7.8 mg/kg/day; format: functional, herpes simplex virus
Murid betaherpesvirus 1 [37] = assay: Tested for the effective dose required to inhibit systemic MCMV in infected mice; format: functional
[38] = tested on: Human immunodeficiency virus 1; assay: Tested for the determination of percentage toxicity at 1 uM against HIV-1 in ATH8 cells; format: organism-based; settings: human immunodeficiency virus 1, ath-8, 1 µM
[39] = tested on: Human immunodeficiency virus 1; assay: Tested for the determination of percentage protection at 1 uM against HIV-1 in ATH8 cells; format: functional, ATH-8
Human alphaherpesvirus 2 [40] = assay: Tested for mean day to death of nonsurvivors against HSV-2 encephalitis in mice at 31.2 mg/kg/day; format: functional, herpes simplex virus
Human alphaherpesvirus 1 [41] = assay: Number of survivors per number of HSV-1 infected mice treated with 4.7 mg/kg/day; 7/10; format: functional, herpes simplex virus
Raji = assay: Tested for the inhibition of diffuse early antigen production assayed by immunofluorescent monoclonal antibody in Raji cells; format: functional; settings: Homo sapiens
[42] = tested on: Human immunodeficiency virus 1; assay: Tested for the determination of percentage protection at 50 uM against HIV-1 in ATH8 cells; format: functional, ATH-8
Human alphaherpesvirus 2 [43] = assay: In vitro antiviral activity tested against herpesvirus, HSV-2, JEN strain by plaque reduction assay in human foreskin fibroblasts; format: functional
Human alphaherpesvirus 1 [44] = assay: Number of survivors per number of HSV-1 infected mice treated with 18.7 mg/kg/day; 10/10; format: functional, herpes simplex virus
Human alphaherpesvirus 1 [45] = assay: Tested for mean day to death of nonsurvivors against HSV-1 infection in mice at 4.7 mg/kg/day; format: functional, herpes simplex virus
Human alphaherpesvirus 1 [46] = assay: Tested for the effective dose required to inhibit HSV-1 in infected mice; format: functional, herpes simplex virus
Human alphaherpesvirus 3 [47] = assay: In vitro antiviral activity tested against herpesvirus, VZV, Ellen strain by plaque reduction assay in human foreskin fibroblasts; format: functional
Human alphaherpesvirus 2 [48] = assay: In vitro antiviral activity tested against herpesvirus, HSV-2, X-79 strain by plaque reduction assay in human foreskin fibroblasts; format: functional
Human alphaherpesvirus 1 [49] = assay: In vitro antiviral activity tested against herpesvirus, HSV-1, E-377 strain by plaque reduction assay in human foreskin fibroblasts; format: functional
[50] = read-out: ED50 (the source's name)
[51] = read-out: ID50 (the source's name)

Nc1ncnc2c1ncn2[C@H]1CC[C@@H](CO)O1
Protection [1]: 99% | Cytotoxicity [2]: 0% | Protection [3]: 69% | Cytotoxicity [4]: 8% | Protection [5]: 99% | Protection [6]: 100% | Cytotoxicity [7]: 0%

Nc1nc(O)c2ncn([C@@H]3C[C@H](CO)C3CO)c2n1 (some centres undefined)
Cytotoxity [8]: 0% | EC50 (Human betaherpesvirus 5 [9]; [50]): 3.9 µg/mL (≈ 14.7 µM) | IC50 (Human betaherpesvirus 5 [9]; [51]): > 100 µg/mL | Protection [10]: 100% | Survivors / treated (Human alphaherpesvirus 2 [11]): 5 | EC50 (Murid betaherpesvirus 1 [12]; [50]): 0.1 µg/mL (≈ 0.377 µM) | IC50 (Murid betaherpesvirus 1 [12]; [51]): > 100 µg/mL | IC50 (Homo sapiens): 27 µg/mL (≈ 102 µM) | Survivors / treated (Human alphaherpesvirus 2 [13]): 4 | MDD (Murid betaherpesvirus 1 [14]): 5.9 | EC50 (Human alphaherpesvirus 2 [15]; [50]): 0.07 µg/mL (≈ 0.264 µM) | IC50 (Human alphaherpesvirus 2 [15]; [51]): > 100 µg/mL | Survivors / treated (Human alphaherpesvirus 2 [16]): 8 | ED50 (Human alphaherpesvirus 2 [17]): 39.8 mg/kg/day | Survivors / treated (Murid betaherpesvirus 1 [18]): 7 | Protection [19]: 11% | Survivors / treated (Human alphaherpesvirus 1 [20]): 4 | EC50 (Human alphaherpesvirus 3 [21]; [50]): 0.4 µg/mL (≈ 1.51 µM) | IC50 (Human alphaherpesvirus 3 [21]; [51]): > 100 µg/mL | Survivors / treated (Murid betaherpesvirus 1 [22]): 13 | Survivors / treated (Murid betaherpesvirus 1 [23]): 13 | EC50 (Human alphaherpesvirus 2 [24]; [50]): 0.07 µg/mL (≈ 0.264 µM) | IC50 (Human alphaherpesvirus 2 [24]; [51]): > 100 µg/mL | EC50 (Human betaherpesvirus 5 [25]; [50]): 4.9 µg/mL (≈ 18.5 µM) | IC50 (Human betaherpesvirus 5 [25]; [51]): > 100 µg/mL | Survivors / treated (Murid betaherpesvirus 1 [26]): 9 | Cytotoxity [27]: 83% | EC50 (Human betaherpesvirus 5 [28]; [50]): 1.2 µg/mL (≈ 4.52 µM) | IC50 (Human betaherpesvirus 5 [28]; [51]): > 100 µg/mL | Cytotoxity [29]: 41% | MDD (Murid betaherpesvirus 1 [30]): 5.8 | MDD (Human alphaherpesvirus 1 [31]): 9.3 | MDD (Murid betaherpesvirus 1 [32]): 3.5 | MDD (Human alphaherpesvirus 2 [33]): 16.3 | MDD (Murid betaherpesvirus 1 [34]): 4.5 | EC50 (Human betaherpesvirus 5 [35]; [50]): 6.2 µg/mL (≈ 23.4 µM) | IC50 (Human betaherpesvirus 5 [35]; [51]): > 100 µg/mL | MDD (Human alphaherpesvirus 2 [36]): 12.1 | ED50 (Murid betaherpesvirus 1 [37]): 2.2 mg/kg/day | Cytotoxity [38]: 8% | Protection [39]: 29% | MDD (Human alphaherpesvirus 2 [40]): 11.2 | Survivors / treated (Human alphaherpesvirus 1 [41]): 7 | EC50 (Raji; [50]): 0.01 µg/mL (≈ 0.0377 µM) | IC50 (Raji; [51]): 94 µg/mL (≈ 354 µM) | Protection [42]: 46% | EC50 (Human alphaherpesvirus 2 [43]; [50]): 0.05 µg/mL (≈ 0.188 µM) | IC50 (Human alphaherpesvirus 2 [43]; [51]): > 100 µg/mL | Survivors / treated (Human alphaherpesvirus 1 [44]): 10 | MDD (Human alphaherpesvirus 1 [45]): 9.3 | ED50 (Human alphaherpesvirus 1 [46]): 1.9 mg/kg/day | EC50 (Human alphaherpesvirus 3 [47]; [50]): 0.4 µg/mL (≈ 1.51 µM) | IC50 (Human alphaherpesvirus 3 [47]; [51]): > 100 µg/mL | EC50 (Human alphaherpesvirus 2 [48]; [50]): 0.06 µg/mL (≈ 0.226 µM) | IC50 (Human alphaherpesvirus 2 [48]; [51]): > 100 µg/mL | EC50 (Human alphaherpesvirus 1 [49]; [50]): 0.05 µg/mL (≈ 0.188 µM) | IC50 (Human alphaherpesvirus 1 [49]; [51]): > 100 µg/mL
